From patent publication US20100056477A1, “FUNGICIDAL MIXTURES OF AMIDINYLPHENYL COMPOUNDS” (Bayer CropScience AG, priority 2006, published 2010) come the findings set out here.

The test system of one series is Leptosphaeria nodorum. The series can be described thus: Leptosphaeria nodorum test (wheat)/protective. Format: in vivo. Particulars: single active compound, 125 ppm, protective, evaluated 10 days after inoculation. As for the experimental part:
(§1) Solvent: 50 parts by weight of n,n-dimethylacetamid
(§2) Emulsifier: 1 part by weight of alkylaryl polyglycol ether
(§3) To produce a suitable preparation of active compound, 1 part by weight of active compound or active compound combination is mixed with the stated amounts of solvent and emulsifier, and the concentrate is diluted with water to the desired concentration.
To test for protective activity, young plants are sprayed with a preparation of active compound or active compound combination at the stated rate of application. After the spray coating has been dried, the plants are sprayed with a spore suspension of Leptosphaeria nodorum. The plants remain for 48 hours in an incubation cabinet at 20° C. and a relative atmospheric humidity of 100%.
(§4) The plants are placed in a greenhouse at a temperature of approximately 15° C. and a relative atmospheric humidity of approximately 80%.
The test is evaluated 10 days after the inoculation. 0% means an efficacy which corresponds to that of the control, while an efficacy of 100% means that no disease is observed.

Another series deals with Septoria tritici. Nature of the series: Septoria tritici test (wheat)/protective. It is filed as in vivo. Particulars: single active compound, rate of application 125 ppm, protective, evaluated 20 days after inoculation. As for the experimental part:
as §1, §2, §3
To test the protective activity, young plants are sprayed with a preparation of active compound or active compound combination at the stated rate of application. After the spray coating has been dried, the plants are sprayed with a spore suspension of Septoria tritici. The plants remain for 48 hours at 20° C. and then 60 hours at 15° C. in an incubation cabinet at a relative atmospheric humidity of 100%.
as §4
The test is evaluated 20 days after inoculation. 0% means an efficacy which corresponds to that of the control, while an efficacy of 100% means that no disease is observed.

A further series deals with Botrytis cinerea. Nature of the series: Botrytis test (beans)/protective. Format: in vivo. Particulars: single active compound, protective, evaluated 2 days after inoculation. Here is the method: Solvent: 24.5 parts by weight of acetone • 24.5 parts by weight of dimethylacetamide
as §2
To produce a suitable preparation of active compound, 1 part by weight of active compound is mixed with the stated amounts of solvent and emulsifier, and the concentrate is diluted with water to the desired concentration.
To test for protective activity, young plants are sprayed with the preparation of active compound. After the spray coating has dried on, 2 small pieces of agar covered with growth of Botrytis cinerea are placed on each leaf. The inoculated plants are placed in a darkened chamber at 20° C. and a relative atmospheric humidity of 100%.
2 days after the inoculation, the size of the lesions on the leaves is evaluated. 0% means an efficacy which corresponds to that of the control, while an efficacy of 100% means that no disease is observed.

What is called chromatographic logP is lipophilicity estimated from chromatographic retention. A lower chromatographic logP goes with lower lipophilicity.

`Cc1cc(Br)c(C=O)cc1[N+](=O)[O-]` [2-bromo-4-methyl-5-nitrobenzaldehyd, 2-bromo-4-methyl-5-nitrobenzaldehyde] returned a chromatographic logP in the series “LogP (HCOOH)” (HCOOH) of 2.61.

`Cc1cc(OCCC[Si](C)(C)C)c(C(F)F)cc1N` [5-(difluoromethyl)-2-methyl-4-[3-(trimethylsilyl)propoxy]aniline] registered a chromatographic logP in “LogP (HCOOH)” (HCOOH (formic acid)) of 3.8.

For `CCN(C)/C=N/c1cc(C(F)(F)F)c(OCCC[Si](C)(C)C)cc1C` [(1-37), N-[5-trifluoro-methyl-2-methyl-4-[3-(trimethylsilyl)propoxyl]phenyl]-N-ethyl-N-methyl-methanimidamide], the “Efficacy in % a.e. (actual efficacy)” value in the series with Leptosphaeria nodorum stood at 92%; in the series on Septoria tritici, 30%. Also, the Efficacy in % with Botrytis cinerea (10 ppm) was 0%; in the series with Botrytis cinerea (100 ppm), 23%.

Take `CCN(C)/C=N/c1cc(C(F)F)c(OCCC[Si](C)(C)C)cc1C` [(1-42), N′-{5-(difluoromethyl)-2-methyl-4-[3-(trimethylsilyl)propoxy]phenyl}-N-ethyl-N-methylimidoformamide]: the chromatographic logP in “LogP (HCOOH)” (HCOOH (formic acid)) was 2.81. Moreover, the Efficacy in % with Botrytis cinerea (10 ppm) is recorded as 0%; with Botrytis cinerea (100 ppm), 29%.

Consider `Cn1cc(C(=O)Nc2ccccc2C2CC2C2CC2)c(C(F)F)n1` (centres unmarked) [(b-1), reference compound], for which, in the series on Septoria tritici, the “Efficacy in % a.e. (actual efficacy)” value turned out to be 10%. This compound displayed an Efficacy in % with Botrytis cinerea (100 ppm) of 38%.

With `Cn1cc(C(=O)Nc2ccccc2-c2ccc(C#CC(C)(C)C)cc2)c(C(F)F)n1` [(b-5), reference compound], in the series on Leptosphaeria nodorum, the “Efficacy in % a.e. (actual efficacy)” value is on record as 67%. The same compound had an Efficacy in % in the series with Botrytis cinerea (10 ppm) of 80%.

With `CC(C)(C)C#Cc1ccc(-c2ccccc2NC(=O)c2cccnc2Cl)cc1` [(b-7)], the “Efficacy in % a.e. (actual efficacy)” value with Leptosphaeria nodorum came out at 67%.

As for `CC(C)[C@@H]1C2CCC1c1c(NC(=O)c3cn(C)nc3C(F)F)cccc12` (some centres unmarked) [(b-17)], the “Efficacy in % a.e. (actual efficacy)” value with Septoria tritici is 30%.

For `N#Cc1c[nH]cc1-c1cccc2c1OC(F)(F)O2` [(b-19)], the “Efficacy in % a.e. (actual efficacy)” value in the series on Septoria tritici came to 30%.

As for `Cc1cc(OCCC[Si](C)(C)C)c(C(F)F)cc1[N+](=O)[O-]` [{3-[2-(difluoromethyl)-5-methyl-4-nitrophenoxy]propyl}(trimethyl)silane], the chromatographic logP in the series “LogP (HCOOH)” (HCOOH) turned out to be 5.44.
